Counter-ions that a name gives are not always drawn.
Key:
[1] = biological target: T1, recombinant guanylate cyclase reporter cell line (Rattus norvegicus, UniProt P19686+P20595); assay: Effect on a recombinant guanylate cyclase reporter cell line (B-2); type: cell-based; details: MEC = minimum effective concentration, in some cases mean values for individual determinations
T1 construct: expressed in transfected cells
T1 sequence (P19686 1-690): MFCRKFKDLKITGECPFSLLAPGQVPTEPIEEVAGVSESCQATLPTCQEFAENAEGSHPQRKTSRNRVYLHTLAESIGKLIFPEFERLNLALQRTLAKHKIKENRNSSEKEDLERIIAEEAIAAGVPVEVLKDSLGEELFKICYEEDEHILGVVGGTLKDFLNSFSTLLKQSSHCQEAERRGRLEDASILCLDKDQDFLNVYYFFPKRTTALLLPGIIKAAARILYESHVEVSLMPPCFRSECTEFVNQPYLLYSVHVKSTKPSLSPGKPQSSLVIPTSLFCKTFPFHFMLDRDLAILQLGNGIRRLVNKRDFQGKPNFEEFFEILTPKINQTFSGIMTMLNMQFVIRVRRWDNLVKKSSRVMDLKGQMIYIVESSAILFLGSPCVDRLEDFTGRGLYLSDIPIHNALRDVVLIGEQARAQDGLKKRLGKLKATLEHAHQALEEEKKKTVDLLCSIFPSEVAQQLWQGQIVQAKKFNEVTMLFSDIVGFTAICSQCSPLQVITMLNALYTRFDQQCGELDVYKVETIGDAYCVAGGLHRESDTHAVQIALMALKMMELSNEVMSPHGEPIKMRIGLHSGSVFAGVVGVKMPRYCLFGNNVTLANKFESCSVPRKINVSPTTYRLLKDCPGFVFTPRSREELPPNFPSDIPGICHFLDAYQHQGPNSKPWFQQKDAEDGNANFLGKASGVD
T1 sequence (P20595 1-619): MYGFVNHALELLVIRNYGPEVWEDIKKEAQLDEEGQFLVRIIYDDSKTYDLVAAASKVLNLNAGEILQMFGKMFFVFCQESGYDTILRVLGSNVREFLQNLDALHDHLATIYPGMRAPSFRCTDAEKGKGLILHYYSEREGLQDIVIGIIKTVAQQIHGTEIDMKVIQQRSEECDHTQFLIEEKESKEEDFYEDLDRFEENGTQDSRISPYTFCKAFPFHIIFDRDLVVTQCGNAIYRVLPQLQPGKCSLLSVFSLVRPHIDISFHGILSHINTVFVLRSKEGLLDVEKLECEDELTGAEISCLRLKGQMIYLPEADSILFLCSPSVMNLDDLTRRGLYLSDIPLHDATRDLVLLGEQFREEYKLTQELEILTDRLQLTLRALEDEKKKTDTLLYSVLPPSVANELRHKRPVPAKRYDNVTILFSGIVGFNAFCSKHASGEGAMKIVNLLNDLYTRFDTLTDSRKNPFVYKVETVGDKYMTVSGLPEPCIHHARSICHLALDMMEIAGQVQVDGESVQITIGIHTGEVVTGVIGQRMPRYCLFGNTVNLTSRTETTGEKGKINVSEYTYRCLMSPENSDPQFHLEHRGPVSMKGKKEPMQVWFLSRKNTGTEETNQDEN
Method: B-2. Effect on a Recombinant Guanylate Cyclase Reporter Cell Line
The cellular activity of the compounds according to the invention is determined using a recombinant guanylate cyclase reporter cell line, as described in F. Wunder et al., Anal. Biochem. 339, 104-112 (2005).
Representative MEC values (MEC=minimum effective concentration) for the compounds of the invention are shown in Table 1 below (in some cases as mean values for individual determinations): […]

[2] = biological target: T2, human phosphodiesterase 5 (PDE 5) (Homo sapiens, UniProt O76074); assay: Inhibition of human phosphodiesterase 5 (PDE 5) (B-3); type: biochemical; details: PDE 5 preparation from human platelets; [8-3H] cGMP substrate, SPA; in some cases means of individual determinations
T2 construct: PDE 5 preparations are obtained from human platelets by disruption; from tissue; host or cells: human platelets (Mono Q ion exchange fractions with PDE 5 activity)
Method: B-3. Inhibition of Human Phosphodiesterase 5 (PDE 5)
PDE 5 preparations are obtained from human platelets by disruption (Microfluidizer®, 800 bar, 3 passes), followed by centrifugation (75 000 g, 60 min, 4° C.) and ion exchange chromatography of the supernatant on a Mono Q 10/10 column (linear sodium chloride gradient, elution with a 0.2-0.3M solution of sodium chloride in buffer (20 mM Hepes pH 7.2, 2 mM magnesium chloride). Fractions having PDE 5 activity are combined (PDE 5 preparation) and stored at −80° C.
To determine their in vitro action on human PDE 5, the test substances are dissolved in 100% DMSO and serially diluted. Typically, dilution series (1:3) from 200 μM to 0.091 μM are prepared (resulting final concentrations in the test: 4 μM to 0.0018 μM). In each case 2 μl of the diluted substance solutions are placed into the wells of microtitre plates (Isoplate-96/200 W; Perkin Elmer). Subsequently, 50 μl of a dilution of the above-described PDE 5 preparation are added. The dilution of the PDE 5 preparation is chosen such that during the later incubation less than 70% of the substrate are converted (typical dilution: 1:100; dilution buffer: 50 mM tris/hydrochloric acid pH 7.5, 8.3 mM magnesium chloride, 1.7 mM EDTA, 0.2% BSA). The substrate, [8-^3H] cyclic guanosine-3′,5′-monophosphate (1 μCi/μl; Perkin Elmer), is diluted 1:2000 with assay buffer (50 mM tris/hydrochloric acid pH 7.5, 8.3 mM magnesium chloride, 1.7 mM EDTA) to a concentration of 0.0005 μCi/μl. By addition of 50 μl (0.025 μCi) of the diluted substrate, the enzyme reaction is finally started. The test mixtures are incubated at room temperature for 60 min and the reaction is stopped by adding 25 μl of a suspension of 18 mg/ml yttrium scintillation proximity beads in water (phosphodiesterase beads for SPA assays, RPNQ 0150, Perkin Elmer). The microtitre plates are sealed with a film and left to stand at room temperature for 60 min. Subsequently, the plates are analysed for 30 s per well in a Microbeta scintillation counter (Perkin Elmer). IC50 values are determined using the graphic plot of the substance concentration against percentage PDE 5 inhibition.

MEC [1] [µM]	IC50 [2] [nM]	Structure (SMILES)
1	30	Cc1nc2c(OCc3c(F)ccc(F)c3F)cccn2c1-c1nc2c(c(-c3cc[nH]n3)n1)C(C)(C)C(=O)N2 [Example 74, 5,5-Dimethyl-2-{2-methyl-8-[(2,3,6-trifluorobenzyl)oxy]imidazo[1,2-a]pyridin-3-yl}-4-(1H-pyrazol-5-yl)-5,7-dihydro-6H-pyrrolo[2,3-d]pyrimidin-6-one]
3	110	COc1ccc(CC(C)(N)CNc2nc(-c3c(C)nc4c(OCc5c(F)cccc5F)cccn34)nc3c2C(C)(C)C(=O)N3)cc1 (racemic) [Example 20, rac-4-{[2-amino-3-(4-methoxyphenyl)-2-methylpropyl]amino}-2-{8-[(2,6-difluorobenzyl)oxy]-2-methylimidazo[1,2-a]pyridin-3-yl}-5,5-dimethyl-5,7-dihydro-6H-pyrrolo[2,3-d]pyrimidin-6-one]
1	1.5	Cc1nc2c(OCc3c(F)cccc3F)cccn2c1-c1nc2c(c(Oc3cn[nH]c3)n1)C(C)(C)C(=O)N2 [Example 44, 2-{8-[(2,6-Difluorobenzyl)oxy]-2-methylimidazo[1,2-a]pyridin-3-yl}-5,5-dimethyl-4-(1H-pyrazol-4-yloxy)-5,7-dihydro-6H-pyrrolo[2,3-d]pyrimidin-6-one]
3	48	Cc1nc2c(OCc3c(F)cccc3F)cccn2c1-c1nc(CNC(=O)C2CC2)c2c(n1)NC(=O)C2(C)C [Example 66, N-[(2-{8-[(2,6-Difluorobenzyl)oxy]-2-methylimidazo[1,2-a]pyridin-3-yl}-5,5-dimethyl-6-oxo-6,7-dihydro-5H-pyrrolo[2,3-d]pyrimidin-4-yl)methyl]cyclopropanecarboxamide]
10	28	Cc1nc2c(OCc3c(F)ccc(F)c3F)cccn2c1-c1nc2c(c(C(=O)N3CCNCC3)n1)C(C)(C)C(=O)N2 [Example 64, 5,5-dimethyl-2-{2-methyl-8-[(2,3,6-trifluorobenzyl)oxy]imidazo[1,2-a]pyridin-3-yl}-4-(piperazin-1-ylcarbonyl)-5,7-dihydro-6H-pyrrolo[2,3-d]pyrimidin-6-one trifluoroacetate]
1	9.8	COCC(C)(N)CNc1nc(-c2c(C)nc3c(OCc4c(F)cccc4F)cccn23)nc2c1C(C)(C)C(=O)N2 (single isomer, unassigned; ent-4) [Example 45, ent-4-[(2-Amino-3-methoxy-2-methylpropyl)amino]-2-{8-[(2,6-difluorobenzyl)oxy]-2-methylimidazo[1,2-a]pyridin-3-yl}-5,5-dimethyl-5,7-dihydro-6H-pyrrolo[2,3-d]pyrimidin-6-one (Enantiomer A)]
5.3	300	Cc1nc2c(OCc3c(F)cccc3F)cccn2c1-c1nc(I)c2c(n1)NC(=O)C2(C)C [Example 2, 2-{8-[(2,6-Difluorobenzyl)oxy]-2-methylimidazo[1,2-a]pyridin-3-yl}-4-iodo-5,5-dimethyl-5,7-dihydro-6H-pyrrolo[2,3-d]pyrimidin-6-one]
3	420	Cc1nc2c(OCc3c(F)ccc(F)c3F)cccn2c1-c1nc2c(c(C(=O)N3CCN(C)CC3)n1)C(C)(C)C(=O)N2 [Example 60, 5,5-dimethyl-4-[(4-methylpiperazin-1-yl)carbonyl]-2-{2-methyl-8-[(2,3,6-trifluorobenzyl)oxy]imidazo[1,2-a]pyridin-3-yl}-5,7-dihydro-6H-pyrrolo[2,3-d]pyrimidin-6-one trifluoroacetate]
1	7.1	Cc1nc2c(OCc3c(F)cccc3F)cccn2c1-c1nc(NCCC(F)(F)F)c2c(n1)NC(=O)C2(C)C [Example 19, 2-{8-[(2,6-difluorobenzyl)oxy]-2-methylimidazo[1,2-a]pyridin-3-yl}-5,5-dimethyl-4-[(3,3,3-trifluoropropyl)amino]-5,7-dihydro-6H-pyrrolo[2,3-d]pyrimidin-6-one]
1	12	CCCC(C)(N)CNc1nc(-c2c(C)nc3c(OCc4c(F)cccc4F)cccn23)nc2c1C(C)(C)C(=O)N2 (racemic) [Example 13, rac-4-[(2-Amino-2-methylpentyl)amino]-2-{8-[(2,6-difluorobenzyl)oxy]-2-methylimidazo[1,2-a]pyridin-3-yl}-5,5-dimethyl-5,7-dihydro-6H-pyrrolo[2,3-d]pyrimidin-6-one (racemate)]
0.3	1.3	Cc1nc2c(OCc3c(F)cccc3F)cccn2c1-c1nc2c(c(C(=O)NCC(C)(C)O)n1)C(C)(C)C(=O)N2 [Example 56, 2-{8-[(2,6-difluorobenzyl)oxy]-2-methylimidazo[1,2-a]pyridin-3-yl}-N-(2-hydroxy-2-methylpropyl)-5,5-dimethyl-6-oxo-6,7-dihydro-5H-pyrrolo[2,3-d]pyrimidine-4-carboxamide]
1	11	Cc1nc2c(OCc3c(F)cccc3F)cccn2c1-c1nc2c(c(N3C[C@H]4C[C@@]4(N)C3)n1)C(C)(C)C(=O)N2 (relative stereo) [Example 32, rac-rel-4-[(1R,5S)-1-amino-3-azabicyclo[3.1.0]hex-3-yl]-2-{8-[(2,6-difluorobenzyl)oxy]-2-methylimidazo[1,2-a]pyridin-3-yl}-5,5-dimethyl-5,7-dihydro-6H-pyrrolo[2,3-d]pyrimidin-6-one formate]
3	2.5	Cc1nc2c(OCc3c(F)cccc3F)cccn2c1-c1nc2c(c(N[C@H]3CC[C@H](O)CC3)n1)C(C)(C)C(=O)N2 [Example 15, 2-{8-[(2,6-Difluorobenzyl)oxy]-2-methylimidazo[1,2-a]pyridin-3-yl}-4-[(trans-4-hydroxycyclohexyl)amino]-5,5-dimethyl-5,7-dihydro-6H-pyrrolo[2,3-d]pyrimidin-6-one]
0.3	22	COCC(C)(N)CNc1nc(-c2c(C)nc3c(OCc4c(F)cccc4F)cccn23)nc2c1C(C)(C)C(=O)N2 (racemic) [Example 21, rac-4-[(2-amino-3-methoxy-2-methylpropyl)amino]-2-{8-[(2,6-difluorobenzyl)oxy]-2-methylimidazo[1,2-a]pyridin-3-yl}-5,5-dimethyl-5,7-dihydro-6H-pyrrolo[2,3-d]pyrimidin-6-one]

— US9688699B2, “3-(pyrimidine-2-yl)imidazo[1,2-a]pyridines” (Bayer Pharma Aktiengesellschaft, priority 2014, dated 2017)
